Measured values: ChEMBL document CHEMBL6127041, “Dual-target inhibitors based on acetylcholinesterase: Novel agents for Alzheimer's disease” (Eur J Med Chem, 2024)

Tests used:
Acetylcholinesterase [1] = target: T1, Acetylcholinesterase (Homo sapiens, UniProt P22303); test: Inhibition of human recombinant AChE using acetylthiocholine iodide as substratE incubated for 20 mins by DTNB reagent based Ellman's method
Beta-secretase 1 [2] = target: T2, Beta-secretase 1 (Homo sapiens, UniProt P56817); test: Inhibition of human BACE-1 by FRET assay
Acetylcholinesterase [3] = target: T3, Acetylcholinesterase (Electrophorus electricus, UniProt O42275); test: Inhibition of electric eel AChE using acetylthiocholine iodide as substrate preincubated with compounds for 20 mins followed by substrate addition and measured after 5 mins by Ellman's method
Beta-secretase 1 [4] = target: T2, Beta-secretase 1; test: Inhibition of BACE-1 (unknown origin) measured after 2 hrs by FRET assay
Acetylcholinesterase [5] = target: T1, Acetylcholinesterase; test: Inhibition of AChE (unknown origin) using acetylthiocholine iodide as substrate measured after 15 mins by Ellman's method
Acetylcholinesterase [6] = target: T1, Acetylcholinesterase
Description: Inhibition of human AChE by Ellman's method

[7] = target: T4, Amine oxidase [flavin-containing] B (Homo sapiens, UniProt P27338); test: Inhibition of MAO-B (unknown origin)
T4 sequence (P27338 whole entry): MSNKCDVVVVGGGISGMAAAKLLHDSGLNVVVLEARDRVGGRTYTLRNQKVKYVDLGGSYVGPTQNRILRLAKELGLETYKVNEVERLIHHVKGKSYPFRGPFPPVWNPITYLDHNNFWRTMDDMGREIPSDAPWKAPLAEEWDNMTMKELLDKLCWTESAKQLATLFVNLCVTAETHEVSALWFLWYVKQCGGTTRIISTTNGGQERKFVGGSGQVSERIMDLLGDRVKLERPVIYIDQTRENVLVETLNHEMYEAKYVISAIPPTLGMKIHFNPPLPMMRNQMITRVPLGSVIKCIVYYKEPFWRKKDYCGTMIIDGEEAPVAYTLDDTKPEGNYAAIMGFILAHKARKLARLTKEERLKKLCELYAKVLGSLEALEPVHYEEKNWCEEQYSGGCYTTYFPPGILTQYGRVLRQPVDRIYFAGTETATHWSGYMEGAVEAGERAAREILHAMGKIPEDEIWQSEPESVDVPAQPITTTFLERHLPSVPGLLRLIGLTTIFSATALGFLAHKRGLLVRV

[8] = target: T5, Amine oxidase [flavin-containing] A (Homo sapiens, UniProt P21397); test: Inhibition of MAO-A (unknown origin)
T5 sequence (P21397 whole entry): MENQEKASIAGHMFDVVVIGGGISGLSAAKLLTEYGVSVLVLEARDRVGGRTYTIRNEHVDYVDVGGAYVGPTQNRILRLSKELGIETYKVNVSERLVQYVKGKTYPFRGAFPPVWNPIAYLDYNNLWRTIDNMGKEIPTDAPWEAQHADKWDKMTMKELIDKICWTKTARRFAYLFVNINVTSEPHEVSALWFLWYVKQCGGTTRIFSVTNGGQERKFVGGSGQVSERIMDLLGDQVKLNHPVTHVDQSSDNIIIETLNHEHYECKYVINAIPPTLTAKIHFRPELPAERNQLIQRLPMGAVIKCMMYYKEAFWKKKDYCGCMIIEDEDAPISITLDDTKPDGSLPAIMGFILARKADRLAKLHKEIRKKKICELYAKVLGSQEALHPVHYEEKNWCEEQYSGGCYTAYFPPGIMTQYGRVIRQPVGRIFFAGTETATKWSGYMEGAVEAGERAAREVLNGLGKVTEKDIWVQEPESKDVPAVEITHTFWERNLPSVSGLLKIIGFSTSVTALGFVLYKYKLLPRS

Cholinesterase [9] = target: Cholinesterase (Homo sapiens, UniProt P06276); test: Inhibition of BChE (unknown origin) incubated for 10 mins by Ellman's method
Acetylcholinesterase [10] = target: T1, Acetylcholinesterase; test: Inhibition of AChE (unknown origin) by Ellman's method
Acetylcholinesterase [11] = target: T1, Acetylcholinesterase; test: Inhibition of AChE (unknown origin) using acetylthiocholine iodide as substrate measured for 20 mins by Ellman's method
Acetylcholinesterase [12] = target: T1, Acetylcholinesterase; test: Inhibition of AChE (unknown origin) incubated for 1 hr by Ellman's method
Beta-secretase 1 [13] = target: T2, Beta-secretase 1; test: Inhibition of BACE-1 (unknown origin)
Acetylcholinesterase [14] = target: T1, Acetylcholinesterase; remark: listed apart in the source
[15] = target: Glycogen synthase kinase-3 beta (Homo sapiens, UniProt P49841); test: Inhibition of human recombinant GSK3beta by ADP-Glo Kinase Assay
Acetylcholinesterase [16] = target: T3, Acetylcholinesterase; test: Inhibition of electric eel AChE using acetylthiocholine iodide as substrate preincubated for 5 mins followed by substrate addition by DTNB reagent based Ellman's method
[17] = target: High affinity cGMP-specific 3',5'-cyclic phosphodiesterase 9A (Homo sapiens, UniProt O76083); test: Inhibition of PDE9A (unknown origin)
Acetylcholinesterase [18] = target: T1, Acetylcholinesterase; test: Inhibition of AChE (unknown origin)
Cholinesterase [19] = target: Cholinesterase (Equus caballus, UniProt P81908); test: Inhibition of equine serum BuChE using butyrylthiocholine iodide as substrate preincubated for 5 mins followed by substrate addition by DTNB reagent based Ellman's method
[20] = Permeability of compound at pH 7.4 by PAMPA assay; format: ADME; settings: read-out: permeability
Beta-secretase 1 [21] = target: T2, Beta-secretase 1; test: Inhibition of BACE-1 (unknown origin) incubated for 60 mins by TR-FRET assay
Acetylcholinesterase [22] = target: T1, Acetylcholinesterase; test: Inhibition of AChE (unknown origin) at 40 uM by Ellman's method relative to control

Cholinesterase (Homo sapiens, UniProt P06276), sequence (P06276 whole entry): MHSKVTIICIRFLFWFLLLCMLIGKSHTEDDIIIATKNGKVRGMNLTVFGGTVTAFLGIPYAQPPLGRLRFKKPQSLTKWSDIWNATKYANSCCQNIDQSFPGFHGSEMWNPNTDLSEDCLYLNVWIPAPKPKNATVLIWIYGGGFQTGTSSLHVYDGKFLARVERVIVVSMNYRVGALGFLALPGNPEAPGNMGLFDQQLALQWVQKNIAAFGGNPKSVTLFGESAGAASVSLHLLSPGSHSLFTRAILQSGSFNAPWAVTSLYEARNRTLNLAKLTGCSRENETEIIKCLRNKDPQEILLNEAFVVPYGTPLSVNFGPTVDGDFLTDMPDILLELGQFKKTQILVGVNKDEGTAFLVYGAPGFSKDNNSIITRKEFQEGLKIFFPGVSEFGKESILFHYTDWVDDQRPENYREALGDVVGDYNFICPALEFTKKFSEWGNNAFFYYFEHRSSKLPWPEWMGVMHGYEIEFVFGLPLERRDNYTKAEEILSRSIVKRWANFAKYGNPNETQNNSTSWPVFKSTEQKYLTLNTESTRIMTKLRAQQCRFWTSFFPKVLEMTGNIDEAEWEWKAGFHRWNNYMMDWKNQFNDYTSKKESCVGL
T1 sequence (P22303 whole entry): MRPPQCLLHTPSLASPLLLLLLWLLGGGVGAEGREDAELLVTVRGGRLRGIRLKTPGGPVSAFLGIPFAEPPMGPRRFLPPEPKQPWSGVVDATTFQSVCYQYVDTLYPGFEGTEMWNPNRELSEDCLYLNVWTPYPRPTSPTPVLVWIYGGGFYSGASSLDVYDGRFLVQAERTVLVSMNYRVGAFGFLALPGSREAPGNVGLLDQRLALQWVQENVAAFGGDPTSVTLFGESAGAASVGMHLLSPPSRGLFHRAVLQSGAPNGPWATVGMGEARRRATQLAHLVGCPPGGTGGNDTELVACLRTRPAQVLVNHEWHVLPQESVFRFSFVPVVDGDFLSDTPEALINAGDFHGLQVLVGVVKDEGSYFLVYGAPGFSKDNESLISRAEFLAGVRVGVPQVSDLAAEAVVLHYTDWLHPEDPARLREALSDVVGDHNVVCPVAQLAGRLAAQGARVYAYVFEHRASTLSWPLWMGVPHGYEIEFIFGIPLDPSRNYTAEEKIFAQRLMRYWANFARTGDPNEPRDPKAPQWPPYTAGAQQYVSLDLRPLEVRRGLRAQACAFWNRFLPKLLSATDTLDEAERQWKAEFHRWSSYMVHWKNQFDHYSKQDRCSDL
T2 sequence (P56817 whole entry): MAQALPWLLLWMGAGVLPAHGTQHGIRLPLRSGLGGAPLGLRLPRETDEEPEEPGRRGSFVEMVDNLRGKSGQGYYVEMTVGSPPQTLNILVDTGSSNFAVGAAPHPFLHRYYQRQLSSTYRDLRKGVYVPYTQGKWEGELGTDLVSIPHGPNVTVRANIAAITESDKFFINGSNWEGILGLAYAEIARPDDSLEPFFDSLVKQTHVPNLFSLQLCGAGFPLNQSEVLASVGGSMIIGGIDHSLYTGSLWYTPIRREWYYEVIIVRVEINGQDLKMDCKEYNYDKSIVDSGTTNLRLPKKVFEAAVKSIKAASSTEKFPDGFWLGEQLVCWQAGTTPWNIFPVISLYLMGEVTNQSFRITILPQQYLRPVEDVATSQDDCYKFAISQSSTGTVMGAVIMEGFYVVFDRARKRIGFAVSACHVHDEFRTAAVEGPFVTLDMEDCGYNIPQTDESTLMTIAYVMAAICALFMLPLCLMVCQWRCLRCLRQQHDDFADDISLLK
T3 sequence (O42275 whole entry): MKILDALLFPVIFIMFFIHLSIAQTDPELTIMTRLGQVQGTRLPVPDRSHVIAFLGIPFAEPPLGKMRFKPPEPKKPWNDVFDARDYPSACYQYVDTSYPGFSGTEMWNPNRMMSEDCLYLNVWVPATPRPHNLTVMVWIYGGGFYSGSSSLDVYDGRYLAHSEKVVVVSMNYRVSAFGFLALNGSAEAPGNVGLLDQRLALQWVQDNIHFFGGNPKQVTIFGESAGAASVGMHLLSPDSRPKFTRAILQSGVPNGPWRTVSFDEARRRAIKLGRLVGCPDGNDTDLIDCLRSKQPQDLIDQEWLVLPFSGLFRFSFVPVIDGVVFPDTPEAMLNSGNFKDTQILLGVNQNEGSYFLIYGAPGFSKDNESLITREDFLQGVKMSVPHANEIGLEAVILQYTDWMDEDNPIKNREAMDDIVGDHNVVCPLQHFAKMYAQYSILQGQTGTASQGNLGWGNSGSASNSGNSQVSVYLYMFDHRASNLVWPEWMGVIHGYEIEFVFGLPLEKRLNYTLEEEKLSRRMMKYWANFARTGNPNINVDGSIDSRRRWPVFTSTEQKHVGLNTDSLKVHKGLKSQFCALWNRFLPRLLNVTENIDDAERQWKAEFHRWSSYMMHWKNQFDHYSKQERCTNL
Cholinesterase (Equus caballus, UniProt P81908), sequence (P81908 whole entry): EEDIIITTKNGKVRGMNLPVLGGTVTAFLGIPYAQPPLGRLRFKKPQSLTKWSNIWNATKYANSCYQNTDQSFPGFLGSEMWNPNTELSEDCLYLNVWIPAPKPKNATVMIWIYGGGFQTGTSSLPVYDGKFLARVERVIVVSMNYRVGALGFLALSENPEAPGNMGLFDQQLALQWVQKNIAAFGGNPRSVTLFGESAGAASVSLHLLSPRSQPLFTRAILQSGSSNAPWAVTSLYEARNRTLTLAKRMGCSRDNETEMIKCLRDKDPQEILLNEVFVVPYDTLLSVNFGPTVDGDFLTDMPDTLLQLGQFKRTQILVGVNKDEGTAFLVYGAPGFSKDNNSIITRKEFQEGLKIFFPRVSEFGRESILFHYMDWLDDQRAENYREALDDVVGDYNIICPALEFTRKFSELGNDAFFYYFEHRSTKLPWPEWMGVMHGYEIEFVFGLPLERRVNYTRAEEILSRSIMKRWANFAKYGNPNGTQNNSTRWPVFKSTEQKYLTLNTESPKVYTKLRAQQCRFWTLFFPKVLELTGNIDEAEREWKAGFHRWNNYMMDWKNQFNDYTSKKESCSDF
Glycogen synthase kinase-3 beta, sequence (P49841 whole entry): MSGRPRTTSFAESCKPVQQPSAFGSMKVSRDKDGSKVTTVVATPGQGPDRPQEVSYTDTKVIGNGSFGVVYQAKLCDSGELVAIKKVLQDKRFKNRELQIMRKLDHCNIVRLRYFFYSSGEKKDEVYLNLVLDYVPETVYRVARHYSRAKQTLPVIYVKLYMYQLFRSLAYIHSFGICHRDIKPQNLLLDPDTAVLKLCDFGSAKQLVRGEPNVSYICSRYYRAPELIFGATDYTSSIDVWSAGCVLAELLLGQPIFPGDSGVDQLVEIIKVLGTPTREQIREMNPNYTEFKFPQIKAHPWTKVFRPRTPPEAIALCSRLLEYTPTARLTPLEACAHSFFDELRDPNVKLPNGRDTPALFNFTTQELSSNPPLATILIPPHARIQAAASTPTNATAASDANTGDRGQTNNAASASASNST
High affinity cGMP-specific 3',5'-cyclic phosphodiesterase 9A, sequence (O76083 whole entry): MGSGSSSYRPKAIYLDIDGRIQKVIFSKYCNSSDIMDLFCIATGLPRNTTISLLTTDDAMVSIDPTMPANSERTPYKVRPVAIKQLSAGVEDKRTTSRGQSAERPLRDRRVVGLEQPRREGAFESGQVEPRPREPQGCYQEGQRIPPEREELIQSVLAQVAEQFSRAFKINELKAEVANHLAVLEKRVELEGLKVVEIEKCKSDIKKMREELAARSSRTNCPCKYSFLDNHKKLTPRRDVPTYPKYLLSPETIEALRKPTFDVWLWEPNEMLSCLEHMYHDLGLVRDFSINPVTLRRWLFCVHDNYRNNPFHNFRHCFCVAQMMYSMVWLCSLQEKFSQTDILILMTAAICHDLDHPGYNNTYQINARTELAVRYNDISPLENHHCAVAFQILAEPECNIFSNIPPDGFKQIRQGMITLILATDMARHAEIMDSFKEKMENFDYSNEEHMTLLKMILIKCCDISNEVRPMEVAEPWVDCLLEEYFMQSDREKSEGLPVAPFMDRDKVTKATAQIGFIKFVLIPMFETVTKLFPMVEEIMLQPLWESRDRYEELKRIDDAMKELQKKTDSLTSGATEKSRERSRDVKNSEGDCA

## COc1ccccc1NC(=O)C1CCN(Cc2ccccc2)CC1
Acetylcholinesterase [1]
  IC50: 157 nM
Beta-secretase 1 [2]
  IC50: 277 nM

## COc1ccc2c(c1)C/C(=C/c1ccccc1-c1ccccc1)C2=O
Acetylcholinesterase [3]
  IC50: 29.8 nM
Beta-secretase 1 [4]
  IC50: 125 nM

## CSc1ccc(/C=C/C(=O)c2ccccc2N)cn1
Acetylcholinesterase [5]
  IC50: 1220 nM

## O=c1ccoc2ccc(OCCCN3CCCCC3)cc12
Acetylcholinesterase [6]
  IC50: 5580 nM
[7]
  IC50: 7200 nM

## CN(C)c1ccc(/C=C/C(=O)c2ccc(N3CCOCC3)cc2)cc1
[8]
  IC50: > 40000 nM
Cholinesterase [9]
  IC50: > 40000 nM

## COc1ccc([C@@H]2c3[nH]c4ccccc4c3C[C@H]3C(=O)N(CCC4CCN(Cc5ccccc5)CC4)CC(=O)N23)cc1
Acetylcholinesterase [10]
  IC50: 10 nM

## COc1ccccc1/C=C1\Oc2cc(OCCN3CCCC3)ccc2C1=O
[8]
  IC50: > 100000 nM
[7]
  IC50: 980 nM
Acetylcholinesterase [11]
  IC50: 2670 nM

## COc1ccc(/C=N/NC(=O)c2ccc(Cl)nc2)cc1OC
Acetylcholinesterase [12]
  IC50: 30 nM
Beta-secretase 1 [13]
  IC50: 400 nM

## COc1nc(-c2ccnc(NC(=O)C3CC3)c2)sc1C(=O)NCNc1c2c(nc3ccccc13)CCCC2
Acetylcholinesterase [14]
  IC50: 6.3 nM
[15]
  IC50: 68 nM

## O=C1[C@@H]2Cc3c([nH]c4ccccc34)[C@@H](c3ccc4c(c3)OCO4)N2C(=O)CN1CCC1CCN(Cc2ccccc2)CC1
Acetylcholinesterase [10]
  IC50: 30 nM

## O=C(/C=C/c1ccc(Br)cc1)c1ccc(Cl)s1
[8]
  IC50: 1360 nM
[7]
  IC50: 700 nM
Acetylcholinesterase [16]
  IC50: 16200 nM
Cholinesterase [9]
  IC50: 19300 nM

## O=c1[nH]c(COCCC2CCN(Cc3ccccc3)CC2)nc2c1cnn2C1CCCC1
[17]
  IC50: 530 nM
Acetylcholinesterase [18]
  IC50: 230 nM

## COc1ccc(NC(=O)C2CCN(Cc3ccccc3)CC2)cc1
Acetylcholinesterase [1]
  IC50: 165 nM
Beta-secretase 1 [2]
  IC50: 253 nM

## CCOc1ccc(C(=O)/C=C/c2ccccc2)cc1
[8]
  IC50: 28500 nM
[7]
  IC50: 400 nM
Acetylcholinesterase [16]
  IC50: 3230 nM

## CCO/C(C)=N/Oc1ccc(/C=C/C(=O)c2ccc(F)cc2)cc1
[8]
  IC50: 17400 nM
[7]
  IC50: 20 nM
Acetylcholinesterase [16]
  IC50: 670 nM

## COc1ccc2c3c1O[C@H]1C[C@@H](O)C=C[C@@]31CCN(CCCCCCNC13CC4CC(C)(CC(C)(C4)C1)C3)C2 [MEMAGAL]
Acetylcholinesterase [10]
  IC50: 1.16 nM

## O=C(CN1CCC(Cc2ccccc2)CC1)c1ccc2ccccc2c1
Acetylcholinesterase [6]
  IC50: 9130 nM

## Clc1ccc(-c2nnc(CNC3CCN(Cc4ccccc4)CC3)o2)c(Cl)c1
Cholinesterase [19]
  IC50: 210 nM
Beta-secretase 1 [13]
  IC50: 250 nM

## Cc1ccc(/C=C/C(=O)c2ccccc2N)cn1
Acetylcholinesterase [5]
  IC50: 2920 nM

## COc1cc(/C=N/NC(=O)c2ccc(Cl)nc2)ccc1O
Acetylcholinesterase [12]
  IC50: 30 nM
Beta-secretase 1 [13]
  IC50: 600 nM

## CN(Cc1ccccc1)Cc1ccc(/C=C2/Cc3ccc(OCCCCCN4CCN(C(c5ccc(F)cc5)c5ccc(F)cc5)CC4)cc3C2=O)cc1
Acetylcholinesterase [3]
  IC50: 44.1 nM
Beta-secretase 1 [4]
  IC50: 341 nM

## O=C(/C=C/c1ccccc1)c1ccc(N2CCOCC2)cc1
[8]
  IC50: > 40000 nM
Cholinesterase [9]
  IC50: > 40000 nM

## CCOc1cc(/C=N/NC(=O)c2ccc(Cl)nc2)ccc1O
Acetylcholinesterase [12]
  IC50: 30 nM
Beta-secretase 1 [13]
  IC50: 700 nM

## COc1ccc(/C=C2\Oc3cc(OCCN4CCCC4)ccc3C2=O)c(OC)c1OC
Acetylcholinesterase [6]
  IC50: 1560 nM
[7]
  IC50: 340 nM

## COc1ccc(NC(=O)C2CCN(Cc3ccccc3)CC2)cc1OC
Acetylcholinesterase [1]
  IC50: 145 nM
Beta-secretase 1 [2]
  IC50: 243 nM

## Cn1c(NCCCCCCCNc2c3c(nc4cc(Cl)ccc24)CCCC3)nc(-c2ccncc2F)cc1=O
Acetylcholinesterase [10]
  IC50: 51.1 nM

## CCO/C(C)=N/Oc1ccc(/C=C/C(=O)c2ccc(C)cc2)cc1
[8]
  IC50: 15000 nM
[7]
  IC50: 30 nM
Acetylcholinesterase [16]
  IC50: 850 nM

## COc1ccc2c(c1)C/C(=C/c1ccccc1-c1ccc3ccccc3c1)C2=O
Beta-secretase 1 [2]
  IC50: 101 nM

## Fc1ccc(-c2nnc(N3CCN(c4ccccn4)CC3)o2)c(F)c1
Cholinesterase [19]
  IC50: 160 nM
Beta-secretase 1 [13]
  IC50: 210 nM

## CCN(CCCCOc1ccc(C(=O)/C=C/c2ccc(N(C)C)cc2)c(O)c1)Cc1ccccc1N(C)C
Acetylcholinesterase [16]
  IC50: 130 nM
Cholinesterase [9]
  IC50: 130 nM

## O=C(/C=C/c1ccccc1)c1ccccc1 [CHALCONE]
Acetylcholinesterase [18]
  IC50: 28200 nM

## COc1cc(/C=C/c2nnc(-c3ccc(C(F)(F)F)cc3)o2)ccc1O
[20]
  Papp at 18 h: 5.3 ×10⁻⁶ cm/s

## O=c1[nH]c(CCCCC2CCN(Cc3ccccc3)CC2)nc2c1cnn2C1CCCC1
[17]
  IC50: 280 nM
Acetylcholinesterase [18]
  IC50: 40 nM

## O=C(N/N=C/c1ccc([N+](=O)[O-])cc1)c1ccc(Cl)nc1
Acetylcholinesterase [12]
  IC50: 20 nM
Beta-secretase 1 [13]
  IC50: 200 nM

## COc1nc(-c2ccnc(NC(=O)C3CC3)c2)sc1C(=O)NCCNc1c2c(nc3ccccc13)CCCC2
Acetylcholinesterase [14]
  IC50: 6.4 nM
[15]
  IC50: 66 nM

## O=C(/C=C/c1ccc(F)cc1)c1ccc(Br)s1
[8]
  IC50: 4060 nM
[7]
  IC50: 1710 nM
Acetylcholinesterase [16]
  IC50: 18200 nM
Cholinesterase [9]
  IC50: 16300 nM

## Nc1ccccc1C(=O)/C=C/c1cnc2ccccc2c1
Acetylcholinesterase [5]
  IC50: 540 nM
Beta-secretase 1 [21]
  IC50: 16900 nM

## O=C(/C=C/c1ccc(Cl)cc1)c1ccc(Cl)s1
[8]
  IC50: 1600 nM
[7]
  IC50: 790 nM
Acetylcholinesterase [16]
  IC50: 14800 nM
Cholinesterase [9]
  IC50: 19600 nM

## COc1ccc([C@@H]2c3[nH]c4ccccc4c3C[C@@H]3C(=O)N(CCC4CCN(Cc5ccccc5)CC4)CC(=O)N23)cc1
Acetylcholinesterase [22]
  inhibition: 55.4%

## COc1cc(/C=C2\Oc3cc(OCCN4CCCCC4)ccc3C2=O)cc(OC)c1OC
[8]
  IC50: > 100000 nM
[7]
  IC50: 340 nM
Acetylcholinesterase [11]
  IC50: 1560 nM

## COc1ccc(/C=C/C(=N/Oc2ccc(/C=C/C(=O)c3ccc(F)cc3)cc2)c2ccc(OC)cc2)cc1
[7]
  IC50: 20 nM

## O=C(/C=C/c1ccc(OCc2ccccc2)cc1)c1ccc2c(c1)OCO2
[8]
  IC50: 8610 nM
[7]
  IC50: 1540 nM
Acetylcholinesterase [16]
  IC50: 5400 nM

## COC(=O)c1ccc(/C=N/NC(=O)c2ccc(Cl)nc2)cc1
Acetylcholinesterase [12]
  IC50: 100 nM
Beta-secretase 1 [13]
  IC50: 2800 nM

## COc1ccc2c(c1)C/C(=C/c1ccccc1-c1ccc3nc(N)ccc3c1)C2=O
Acetylcholinesterase [3]
  IC50: 14.7 nM
Beta-secretase 1 [4]
  IC50: 13.1 nM

## Nc1ccccc1C(=O)/C=C/c1ccc(Cl)nc1
Acetylcholinesterase [5]
  IC50: 19000 nM
Beta-secretase 1 [21]
  IC50: 8340 nM

## CN1CCN(c2ccc(C(=O)/C=C/c3cc(Br)ccc3F)cc2)CC1
Cholinesterase [9]
  IC50: 9440 nM

## COc1ccc(-c2ccccc2/C=C2/Cc3cc(OC)ccc3C2=O)cc1
Acetylcholinesterase [3]
  IC50: 21.2 nM
Beta-secretase 1 [4]
  IC50: 99.4 nM

## Nc1ccccc1C(=O)/C=C/c1cnc2c(c1)OCO2
Acetylcholinesterase [5]
  IC50: 4160 nM

## CN1CC(=O)N2[C@H](c3ccc4c(c3)OCO4)c3[nH]c4ccccc4c3C[C@@H]2C1=O
[20]
  Papp at 18 h: 2.16 ×10⁻⁶ cm/s
